Assay results reported in patent US20050148634A1, “1-N-Aminobenzimidazole derivatives” (ZERIA PHARMACEUTICAL CO., LTD, priority 2002, published 2005).
Structures can show the parent of a compound that is named as a salt.

Tests used:
[1] = tested on: histamine-stimulated gastric acid secretion; test: Test 2 gastric acid secretion inhibitory effect, acute fistula method; assay type: in vivo, Sprague-Dawley (SD) rats; settings: male SD rats, administered into the duodenum; total gastric acid secreted on 3rd-5th hours; Probit method
Protocol: Test 2 (Gastric Acid Secretion Inhibitory Effect)
(1) As laboratory animals, seven-week old male Sprague-Dawley (SD) rats were purchased from CHARLES RIVER JAPAN, INC. Subsequent to preliminary rearing for 5 days or longer, they were used in an experiment.
Each test medicine was suspended or dissolved in a 0.5% carboxymethylcellulose sodium solution to prepare a volume of 2.5 mL/kg.
(2) Measurement of Gastric Acid Secretion
Using rats fasted for 18 hours, histamine-stimulated gastric acid secretion in an acute fistula method following the method reported by Hiramatsu et al. (Dig. Dis. Sci., 39, 689-697 (1994)) was measured. Described specifically, each rat was lightly anesthetized with diethyl ether. After that, a winged tube needle with 3.8% citric acid solution filled therein was caused to dwell in the caudal vein. Celiotomy was performed, and the pyloric part of the stomach was ligated. A small hole was then formed in the duodenum, and a feeding tube with physiological saline filled therein was caused to dwell there. After the interior of the stomach was washed with physiological saline, a polyethylene-made fistula tube (inner diameter: 4 mm) was fitted to the proventriculus part and an incised part of the proventriculus was ligated to hold the fistula tube in place. The stomach and duodenum were returned into the abdominal cavity. Celiotomy was performed with the fistula tube and feeding tube being left extending outside, and the rat was placed in a Ballman Cage Type II. Histamine was continuously injected through the winged needle allowed to dwell in the caudal vein (8 mg/kg/h, 1.38 mL/h). Fifteen minutes later, the gastric juice was sampled, and after that, the gastric juice was sampled at intervals of 1 hour. After the amount of each gastric juice sample was recorded, it was titrated with 0.1 mol/L NaOH to a final point of pH 7.0. From the volume required for the titration, the acidity was calculated. The quantity of the secreted gastric acid was determined from the product of the amount of the gastric juice and the acidity. Incidentally, the rats were divided into groups such that the total amount of the first gastric juice samples became equal in each group. Each test medicine was administered in a volume of 2.5 mL/kg into the duodenum through the feeding tube fitted beforehand in the duodenum. To a control group, 0.5% Na—CMC solution was administered.
(3) Analysis of the Results
From the results so obtained, data were presented in terms of average ±S.D. The sum of quantities of gastric acid secreted on the 3rd, 4th and 5th hours after the first sampling was recorded as a total quantity of secreted gastric acid. The percent inhibition in each group was calculated from the total quantity of secreted gastric acid in the control group and the total quantity of secreted gastric acid in the group. From the percent inhibition in each group, the 50% effective dose (ED50) was next calculated by the Probit method.

H+/K+-ATPase = molecular target: T1, H+/K+-ATPase (Sus scrofa, UniProt P19156); test: Test 1 proton pump inhibitory effect: H+/K+-ATPase enzyme inhibiting activity at pH 1; assay type: biochemical; settings: swine stomach enzyme sample; test compound pretreated in pH 1 hydrochloric acid solution with 50% DMSO for 15 minutes; ATP substrate
T1 construct: An interface fraction obtained by the centrifugation was collected; from tissue; host or cells: swine stomach mucosal layer, membrane fraction from the sucrose interface
T1 sequence (P19156 2-1034 limits assumed): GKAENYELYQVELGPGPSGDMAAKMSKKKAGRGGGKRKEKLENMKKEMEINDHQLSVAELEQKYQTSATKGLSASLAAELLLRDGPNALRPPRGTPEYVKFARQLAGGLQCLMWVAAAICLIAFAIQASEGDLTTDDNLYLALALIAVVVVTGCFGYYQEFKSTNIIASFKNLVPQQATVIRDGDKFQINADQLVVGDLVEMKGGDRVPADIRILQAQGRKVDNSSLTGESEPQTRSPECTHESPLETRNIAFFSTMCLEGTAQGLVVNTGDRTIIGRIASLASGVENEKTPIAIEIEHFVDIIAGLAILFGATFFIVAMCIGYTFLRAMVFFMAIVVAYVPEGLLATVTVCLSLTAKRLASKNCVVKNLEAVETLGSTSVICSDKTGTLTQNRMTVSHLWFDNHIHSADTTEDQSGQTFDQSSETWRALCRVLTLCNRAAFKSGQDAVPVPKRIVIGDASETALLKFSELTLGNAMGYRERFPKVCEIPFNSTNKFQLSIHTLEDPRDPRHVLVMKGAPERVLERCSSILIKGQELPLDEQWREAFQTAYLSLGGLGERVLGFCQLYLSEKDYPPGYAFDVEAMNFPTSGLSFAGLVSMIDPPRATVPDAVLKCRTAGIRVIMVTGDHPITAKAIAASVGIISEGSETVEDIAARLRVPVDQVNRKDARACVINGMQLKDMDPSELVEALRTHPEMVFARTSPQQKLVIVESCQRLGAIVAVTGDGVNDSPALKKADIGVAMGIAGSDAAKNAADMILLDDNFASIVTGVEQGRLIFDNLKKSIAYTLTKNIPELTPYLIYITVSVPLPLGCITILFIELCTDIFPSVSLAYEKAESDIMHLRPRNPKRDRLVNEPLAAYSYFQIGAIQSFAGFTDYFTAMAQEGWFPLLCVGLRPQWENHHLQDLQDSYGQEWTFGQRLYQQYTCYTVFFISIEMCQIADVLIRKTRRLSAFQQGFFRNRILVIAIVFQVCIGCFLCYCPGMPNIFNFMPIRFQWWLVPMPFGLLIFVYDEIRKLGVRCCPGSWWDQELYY
T1 sequence (P18434 whole entry partner): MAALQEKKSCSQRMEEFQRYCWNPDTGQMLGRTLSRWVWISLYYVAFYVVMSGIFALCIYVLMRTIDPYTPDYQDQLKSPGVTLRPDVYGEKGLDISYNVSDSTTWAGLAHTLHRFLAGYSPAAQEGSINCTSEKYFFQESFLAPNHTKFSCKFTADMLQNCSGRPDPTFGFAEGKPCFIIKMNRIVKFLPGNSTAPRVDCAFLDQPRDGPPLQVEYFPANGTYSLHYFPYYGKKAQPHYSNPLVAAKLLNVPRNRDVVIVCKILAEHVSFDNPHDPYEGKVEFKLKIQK
Protocol: Test 1 (Proton Pump Inhibitory Effect)
(1) Preparation of H^+/K^+-ATPase Enzyme Sample
A swine stomach which had been stored frozen was separated into a muscularis and a mucosal layer. After the mucosal layer was disrupted with a mixer in 5 volumes of 20 mmol/L tris-HCl buffer containing 0.25 mol/L of sucrose and 1 mmol/L of EGTA (pH 7.4, hereafter abbreviated as “tris-HCl buffer”), centrifugation was conducted at 9,000×g for 30 minutes. The supernatant was gently overlaid on 20 mmol/L tris-HCl buffer containing 30% of sucrose and 1 mmol/L of EGTA (pH 7.4, 8 mL), followed by ultracentrifugation at 100,000×g for 60 minutes. An interface fraction obtained by the centrifugation was collected and subjected to centrifugation twice under 113,000×g for 60 minutes. The sediment was suspended with tris-HCl buffer, and the suspension was homogenized at low rotational speed to provide an enzyme sample. The enzyme sample was stored frozen at −80° C. Using the method reported by Smith et al. (Anal. Biochem., 150, 76-85 (1985)), the thus-obtained sample was quantitatively analyzed for its protein content with a BCA protein assay reagent. The above procedure was all conducted under water cooling.
(2) Discussion about H+/K^+-ATPase Enzyme Inhibiting Activity at pH 1
Following a method making use of a method for the quantitation of inorganic phosphorus as a degradation product (Biochem. Biophys. Res. Commun., 40, 880-886 (1970)), an assay of H^+/K^+-ATPase enzyme inhibiting activity was performed by using ATP as a substrate. As a hydrochloric acid solution for the pretreatment of each test compound, a 1×10^−1 mol/L (pH 1) solution of hydrochloric acid with 50% DMSO contained therein was used. Solutions of each test compound at various concentrations were added to aliquots of the hydrochloric acid solution such that the solutions were diluted 1,000-fold, and the thus-diluted solutions were left over at room temperature for 15 minutes. […] 840-μL Aliquots of an enzyme solution (5 μg proteins) diluted with the TE buffer were then added. After incubated at 37° C. for 30 minutes, 50-μL aliquots of 40 mmol/LATP solution (dissolved in the TE buffer free of KCl) were added to initiate an enzymatic reaction (total volume: 1 mL, final ATP concentration: 2 mmol/L). Subsequent to incubation at 37° C. for 30 minutes, 2-mL aliquots of ice-cold 12% trichloroacetic acid were added to terminate the enzymatic reaction. A molybdenum reagent (1 mL; 3.75% ammonium molybdate/1.5 mol/L sulfuric acid) and butyl acetate (5 mL) were added. After vigorous shaking and mixing for 5 minutes, the absorbance of a butyl acetate layer was measured at 310 nm. From absorbances obtained by dissolving KH2PO4 solutions of various concentrations in aliquots of an 8% TCA solution and performing a similar procedure, a standard curve was prepared to perform a conversion of each quantity of inorganic phosphorus. The assay was conducted in duplicate. From a difference between an average quantity of inorganic phosphorus in the case of the KCl-containing TE buffer and an average quantity of inorganic phosphorus in the case of the KCl-free TE buffer, a residual activity was determined. Supposing that the activity of the control value (DMSO) was 100%, the percent inhibition of the compound was calculated. As the inhibition potency of each test compound, an IC50 value was calculated and presented. The test compounds were al used by dissolving them in dimethyl sulfoxide immediately before their use.

human CYP2C19 = molecular target: T2, human CYP2C19 (Homo sapiens, UniProt P33261); test: Test 3 human CYP2C19 activity inhibition test (S-(+)-mephenyloin to 4'-hydroxymephenyloin); assay type: in vitro ADME; settings: test compound 10 μM; microsomes from human CYP2C19 expression system; formed 4'-hydroxymephenyloin compared with control
T2 construct: purchased Sumitomo Chemical Co., Ltd
T2 sequence (P33261 whole entry): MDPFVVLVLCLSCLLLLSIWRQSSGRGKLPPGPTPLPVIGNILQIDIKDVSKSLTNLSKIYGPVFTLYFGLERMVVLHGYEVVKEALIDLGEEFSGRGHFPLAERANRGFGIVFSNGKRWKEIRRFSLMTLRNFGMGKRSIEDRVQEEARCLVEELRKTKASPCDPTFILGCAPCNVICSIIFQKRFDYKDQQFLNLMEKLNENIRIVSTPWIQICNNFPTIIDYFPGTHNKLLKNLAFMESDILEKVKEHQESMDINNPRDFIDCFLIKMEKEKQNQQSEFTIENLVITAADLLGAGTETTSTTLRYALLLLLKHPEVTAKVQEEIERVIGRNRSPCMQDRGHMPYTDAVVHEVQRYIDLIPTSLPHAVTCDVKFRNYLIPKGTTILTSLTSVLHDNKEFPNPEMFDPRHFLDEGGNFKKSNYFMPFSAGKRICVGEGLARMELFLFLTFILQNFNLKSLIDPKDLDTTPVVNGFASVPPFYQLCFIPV
Protocol: Test 3 (Human CPY2C19 Activity Inhibition Test)
CYP2C19 specifically induces the metabolic reaction of from S-(+)-mephenyloin into 4′-hydroxymephenyloin. Using the CYP2C19 expression system, the inhibitory effect of each test substance was investigated based on the amount (concentration) of formed 4′-hydroxymephenylion as an index of CYP2C19 activity.
a) Metabolic Activity Test
As a reaction mixture, a 125 μmol/L solution of S-(+)-mephenyloin in methanol (50 μL) and a 25 μmol/L solution of each test substance in methanol (0, 10, 100 or 200 μL) were added to 10-mL test tube made of glass, and the solvent was distilled off under a nitrogen gas stream (40° C.).
After incubated at 37° C. for 10 minutes, a 12% aqueous solution of perchloric acid (50 μL) was added to terminate the reaction.
Subsequent to the termination of the reaction, 10 μg/mL methyl p-hydroxybenzoate (50 μL) as an internal standard (I.S.) and diethyl ether (2 mL) were added. The resulting mixture was shaken for 10 minutes, and then centrifuged (3,000 rpm, 10 minutes). The organic layer was separately collected, and under a nitrogen gas stream (40° C.), the solvent was distilled off. The residue was dissolved in a mobile phase (200 μL), and an analysis was conducted by high performance liquid chromatography (HPLC).
Using a solution of 4′-hydroxymephenyloin in lieu of the S-(+)-mephenyloin solution, a calibration line was prepared following the above-described reaction method. Quantitation was conducted based on a peak area ratio of 4′-hydroxymephenyloin to the I.S. Comparing the formed amount of 4′-hydroxymephenyloin as a control with that of 4′-hydroxymephenyloin at the time of the existence of the test compound, the comparison result was used as an index of activity.
HPLC was conducted under the following HPLC conditions A or HPLC conditions B. […]

**Q.** With `Cc1c(OCC(F)(F)F)ccnc1C[S+]([O-])c1nc2ccccc2n1NCC(O)c1ccccc1` (mixture of isomers) [Example 51] as the molecule, how does the “Gastric acid secretion inhibitory effect ED50” value [1] read?
**A.** 2.4 mg/kg

**Q.** What about the IC50 (H+/K+-ATPase) of the same molecule?
**A.** 3.32 µM

**Q.** For `Cc1c(OCC(F)(F)F)ccnc1C[S+]([O-])c1nc2ccccc2n1N` (single isomer, unassigned; (+)) (as salt: tartrate) [(+) isomer of Example 1, (+)-1-Amino-2-[[4-(2,2,2-trifluoroethoxy)-3-methylpyridin-2-yl]methylsulfinyl]benzimidazole], which melting point is on record?
**A.** 111 to 113 °C

**Q.** For `CBc1cc(C)nc(C[S+]([O-])c2nc3ccccc3n2N)c1` (stereo not drawn) [Example 7], which melting point is on record?
**A.** 130 to 133 °C

**Q.** For `Cc1c(OCC(F)(F)F)ccnc1C[S+]([O-])c1nc2cc(OC(F)F)ccc2n1N` (stereo not drawn) [Example 68], which melting point is on record?
**A.** 194 to 195 °C

**Q.** What about the IC50 (H+/K+-ATPase) of the same molecule?
**A.** 3.2 µM

**Q.** With `Cc1c(OCC(F)(F)F)ccnc1C[S+]([O-])c1nc2ccccc2n1NCc1ccccc1` (racemic) [Example 49] as the molecule, how does the IC50 (H+/K+-ATPase) read?
**A.** 1.03 µM

**Q.** Which IC50 (H+/K+-ATPase) does the source give for `C=CCNn1c([S+]([O-])Cc2nccc(OCC(F)(F)F)c2C)nc2ccccc21` (racemic) [Example 64] here?
**A.** 2.28 µM

**Q.** With `Cc1c(OCC(F)(F)F)ccnc1C[S+]([O-])c1nc2ccccc2n1NCCCCCO` (racemic) [Example 54] as the molecule, how does the IC50 (H+/K+-ATPase) read?
**A.** 3.88 µM

**Q.** Which IC50 (H+/K+-ATPase) does the source give for `COC(=O)CNn1c([S+]([O-])Cc2nccc(OCC(F)(F)F)c2C)nc2ccccc21` (racemic) [Example 47] here?
**A.** 4.85 µM

**Q.** Which melting point does the source give for `COc1ccc2nc([S+]([O-])Cc3ncc(C)c(OC)c3C)n(N)c2n1` (stereo not drawn) [Example 78] here?
**A.** 174 to 175 °C

**Q.** What about the “CYP2C19 activity inhibition (%)” value (human CYP2C19) of the same molecule?
**A.** 62%
